Experimental data reported in ChEMBL document CHEMBL1138716, “Carbonic anhydrase inhibitors. Inhibition of the prokariotic beta and gamma-class enzymes from Archaea with sulfonamides” (Bioorg Med Chem Lett, 2004).

What was measured:
[1] = molecular target: T1, Carbonic anhydrase (Methanosarcina thermophila, UniProt P40881)
T1 sequence (P40881 whole entry): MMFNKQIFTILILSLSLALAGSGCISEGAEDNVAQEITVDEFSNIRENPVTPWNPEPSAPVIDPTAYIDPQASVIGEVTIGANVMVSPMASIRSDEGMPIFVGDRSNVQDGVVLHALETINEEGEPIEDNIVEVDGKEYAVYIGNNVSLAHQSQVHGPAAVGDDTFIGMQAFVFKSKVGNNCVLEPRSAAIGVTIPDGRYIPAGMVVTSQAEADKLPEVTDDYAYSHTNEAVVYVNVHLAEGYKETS

[2] = molecular target: T2, Carbonic anhydrase (Methanobacterium thermoautotrophicum, UniProt Q50565)
T2 sequence (Q50565 whole entry): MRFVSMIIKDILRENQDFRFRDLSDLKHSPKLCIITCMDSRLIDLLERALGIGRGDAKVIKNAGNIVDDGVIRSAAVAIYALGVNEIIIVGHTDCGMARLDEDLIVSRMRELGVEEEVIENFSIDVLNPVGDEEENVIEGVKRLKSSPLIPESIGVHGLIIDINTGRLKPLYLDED

[3] = molecular target: T1, Carbonic anhydrase; remark: listed apart in the source

## CC1(C)O[C@@H]2[C@@H](CO[C@@]3(COS(N)(=O)=O)OC(C)(C)O[C@@H]23)O1 [TOPIRAMATE]
[1]
  Ki: 0.12 µM
[2]
  Ki: 23.5 µM

## NNc1ccc(S(N)(=O)=O)cc1
[1]
  Ki: 0.22 µM
[2]
  Ki: 127 µM
[3]
  Ki: 2.2 µM

## Nc1ccc(S(N)(=O)=O)cc1Cl
[1]
  Ki: 0.74 µM
[3]
  Ki: 0.14 µM

## NS(=O)(=O)O [SULFAMATE]
[1]
  Ki: 3.36 µM
[2]
  Ki: 103000 µM
[3]
  Ki: 0.09 µM

## CCOc1ccc2nc(S(N)(=O)=O)sc2c1 [ETHOXZOLAMIDE]
[1]
  Ki: 0.74 µM

## NCCc1ccc(S(N)(=O)=O)cc1
[2]
  Ki: 25.7 µM

## NCc1ccc(S(N)(=O)=O)cc1 [MAFENIDE]
[1]
  Ki: 8.5 µM
[2]
  Ki: 28.5 µM
[3]
  Ki: 0.35 µM

## Nc1ccc(S(=O)(=O)NCc2ccc(S(N)(=O)=O)cc2)cc1
[1]
  Ki: 6.36 µM
[2]
  Ki: 52.4 µM
[3]
  Ki: 0.18 µM

## Cc1ccc(-c2cc(C(F)(F)F)nn2-c2ccc(S(N)(=O)=O)cc2)cc1 [CELECOXIB]
[1]
  Ki: 1.01 µM
[2]
  Ki: 38.5 µM
[3]
  Ki: 0.14 µM

## Nc1cccc(S(N)(=O)=O)c1
[1]
  Ki: 1.24 µM
[2]
  Ki: 14.3 µM
[3]
  Ki: 0.17 µM

## Nc1ccc(S(N)(=O)=O)cc1F
[1]
  Ki: 0.42 µM
[2]
  Ki: 53.4 µM
[3]
  Ki: 0.97 µM

## Nc1ccc(S(N)(=O)=O)cc1Br
[1]
  Ki: 0.28 µM
[2]
  Ki: 77 µM
[3]
  Ki: 1.72 µM

## Nc1ccc(S(N)(=O)=O)cc1 [SULFANILAMIDE]
[1]
  Ki: 3.93 µM
[2]
  Ki: 57.8 µM
[3]
  Ki: 0.25 µM

## Nc1cc(C(F)(F)F)c(S(N)(=O)=O)cc1S(N)(=O)=O [2,4-DISULFAMYLTRIFLUOROMETHYLANILINE]
[2]
  Ki: 50 µM

## NS(N)(=O)=O [SULFAMIDE]
[1]
  Ki: 5.96 µM
[2]
  Ki: 440000 µM

## Nc1ccc(S(N)(=O)=O)cc1I
[1]
  Ki: 0.66 µM
[2]
  Ki: 98 µM
[3]
  Ki: 0.28 µM
